Results: publication doi:10.1101/2022.12.07.519454v2 (biorxiv, 2023)

Legend:
yeast Sin3 PAH2 domain [1] = target: T1, yeast Sin3 PAH2 domain (Saccharomyces cerevisiae, UniProt P22579); assay: fluorescence polarization displacement of FITC-Ume6 SID peptide; format: binding
T1 sequence (P22579 402-473): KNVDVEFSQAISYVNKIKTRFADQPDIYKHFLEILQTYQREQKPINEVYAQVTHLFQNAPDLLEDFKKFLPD

yeast Sin3 PAH2 domain [2] = target: T1, yeast Sin3 PAH2 domain; assay: fluorescence polarization displacement of FITC-Ume6 SID; format: binding

SMILES	IC50 (yeast Sin3 PAH2 domain [1]) [µM]	Ki (yeast Sin3 PAH2 domain [2]) [µM]
C[C@H](NC(=O)C1C(=O)N=C2C=CC=CN2C1O)c1ccccc1 (stereo partly drawn) [E6S, 4-hydroxy-2-oxo-N-((S)-1-phenylethyl)-3,4-dihydro-2H-pyrido[1,2-a]pyrimidine-3-carboxamide]	174 ± 21.9	38.5
C[C@@H](NC(=O)C1C(=O)N=C2C=CC=CN2C1O)c1ccccc1 (stereo partly drawn) [E6R, 4-hydroxy-2-oxo-N-((R)-1-phenylethyl)-3,4-dihydro-2H-pyrido[1,2-a]pyrimidine-3-carboxamide]	74.5 ± 7.2	16.1
